Experimental data: ChEMBL document CHEMBL5634080, “Synthesis, biological evaluation and docking studies of silicon incorporated diarylpyrroles as MmpL3 inhibitors: An effective strategy towards development of potent anti-tubercular agents” (Eur J Med Chem, 2023)
In brackets after ≈: the same amount, converted by molar mass.

Columns and labels:
[1] = Metabolic stability in mouse liver microsomes at 50 uM measured after 30 mins by LC-MS/MS analysis; type: ADME, Microsome; settings: read-out: Stability
[2] = test system: Mycobacterium tuberculosis; assay: Antitubercular activity against Mycobacterium tuberculosis H37Rv assessed as inhibition of bacterial growth incubated for 6 days by Alamar Blue based assay; type: functional; settings: 144 h, time 6 day
[3] = Solubility of the compound at 5 mM at pH 1.2 by HPLC analysis; type: physicochemical; settings: buffer
[4] = Solubility of the compound at 5 mM at pH 7.4 by HPLC analysis; type: physicochemical; settings: buffer
[5] = Solubility of the compound at 5 mM at pH 10.2 by HPLC analysis; type: physicochemical; settings: buffer
[6] = Solubility of the compound at 5 mM at pH 2.2 by HPLC analysis; type: physicochemical; settings: buffer
[7] = Metabolic stability in human liver microsomes at 50 uM measured after 30 mins by LC-MS/MS analysis; type: ADME, Microsome; settings: read-out: Stability
[8] = Solubility of the compound at 5 mM at pH 4.5 by HPLC analysis; type: physicochemical; settings: buffer
[9] = test system: Mycobacterium tuberculosis; assay: Antitubercular activity against Mycobacterium tuberculosis H37Rv; type: functional
[10] = Selectivity index, ratio of IC50 for cytotoxicity against HEK293 cells to MIC for antitubercular activity against Mycobacterium tuberculosis H37Rv; type: toxicity, cell-based; settings: human, read-out: Ratio IC50
[11] = Protein binding in human plasma at 150 uM by equilibrium dialysis method; type: ADME, cell-free; settings: read-out: PPB (converted)
[12] = Cytotoxicity against mouse primary astrocytes assessed as reduction in cell viability measured after 24 hrs by MTT assay; type: toxicity, cell-based, Astrocyte
HEK293 = assay: Cytotoxicity against HEK293 cells assessed as reduction in cell viability at >45 uM measured after 24 hrs by MTT assay; type: toxicity, cell-based; settings: human, hek293, 24 h
[13] = Selectivity index, ratio of IC50 for cytotoxicity against mouse primary astrocytes cells to MIC for antitubercular activity against Mycobacterium tuberculosis H37Rv; type: toxicity, cell-based; settings: read-out: Ratio IC50
[14] = Metabolic stability in human plasma at 50 uM measured after 60 mins by LC-MS/MS analysis; type: ADME, cell-free; settings: read-out: Stability

With `Cc1c(CN2CCN(C)CC2)cc(-c2ccc(Cl)cc2)n1-c1ccc(Cl)cc1` the remaining at 0.5 h, 50 µM [1] was 62.4%, the MIC [2] was 1.7 µM (≈ 0.704 µg/mL) and the solubility at 5000 µM [3] was 45.2 µM (≈ 18.7 µg/mL). The solubility at 5000 µM [4] was 26.7 µM (≈ 11.1 µg/mL), the solubility at 5000 µM [5] was 5.38 µM (≈ 2.23 µg/mL) and the solubility at 5000 µM [6] was 42.2 µM (≈ 17.5 µg/mL). It also gave a remaining at 0.5 h, 50 µM [7] of 79.8% and a solubility at 5000 µM [8] of 36.7 µM (≈ 15.2 µg/mL).
`C[Si]1(C)CCN(Cc2cc(-c3ccc(Cl)cc3)n(-c3ccc(Cl)cc3)n2)CC1` showed an MIC [9] of 0.07 µM (≈ 0.0301 µg/mL).
In the case of `CSc1ccc(-c2c(CN3CC[Si](C)(C)CC3)cc(C)n2-c2ccc(F)cc2)cc1`, the MIC [2] is reported as 3.6 µM (≈ 1.58 µg/mL).
For `CCc1ccc(-n2c(C)cc(CN3CC[Si](C)(C)CC3)c2-c2ccc(OC)cc2)cc1`, the MIC [2] was 23.1 µM (≈ 10 µg/mL).
Compound `CCc1ccc(-n2c(-c3ccc(Cl)cc3)cc(CN3CC[Si](C)(C)CC3)c2C)cc1` has a remaining at 0.5 h, 50 µM [1] of 75.5%, an MIC [2] of 0.1 µM (≈ 0.0437 µg/mL) and a solubility at 5000 µM [3] of 9.86 µM (≈ 4.31 µg/mL). The selectivity ratio [10] was > 250, the fraction unbound at 150 µM [11] was 0.0002 and the solubility at 5000 µM [4] was 1.19 µM (≈ 0.52 µg/mL). For the same compound, the solubility at 5000 µM [5] was 12.9 µM (≈ 5.65 µg/mL), the IC50 at 24 h [12] was > 20 µM and the Activity (HEK293) was “Non-Toxic”. For the same compound, the selectivity ratio [13] was > 250, the solubility at 5000 µM [6] was 37.2 µM (≈ 16.3 µg/mL) and the remaining at 0.5 h, 50 µM [7] was 60.8%. For the same compound, the solubility at 5000 µM [8] was 32.6 µM (≈ 14.3 µg/mL) and the remaining at 1 h, 50 µM [14] was 95.7%.
`Cc1ccc(-c2cc(CN3CC[Si](C)(C)CC3)c(C)n2-c2ccc(F)cc2)cc1` gave a remaining at 0.5 h, 50 µM [1] of 45.1%, an MIC [2] of 0.1 µM (≈ 0.0407 µg/mL) and a solubility at 5000 µM [3] of 43.7 µM (≈ 17.8 µg/mL). For the same compound, the selectivity ratio [10] was > 250, the fraction unbound at 150 µM [11] was 0.0009 and the solubility at 5000 µM [4] was 26.8 µM (≈ 10.9 µg/mL). The solubility at 5000 µM [5] was 3.13 µM (≈ 1.27 µg/mL), the IC50 at 24 h [12] was > 20 µM and the Activity (HEK293) was “Non-Toxic”. The selectivity ratio [13] was > 250, the solubility at 5000 µM [6] was 42.1 µM (≈ 17.1 µg/mL) and the remaining at 0.5 h, 50 µM [7] was 36.4%. It also gave a solubility at 5000 µM [8] of 42.6 µM (≈ 17.3 µg/mL) and a remaining at 1 h, 50 µM [14] of 96.9%.
With `CCc1ccc(-n2c(-c3ccc(OC)cc3)cc(CN3CC[Si](C)(C)CC3)c2C)cc1` the MIC [2] was 1.5 µM (≈ 0.649 µg/mL).
`Cc1c(CN2CC[Si](C)(C)CC2)cc(-c2ccc(Cl)cc2)n1-c1ccccc1` showed an MIC [2] of 0.1 µM (≈ 0.0409 µg/mL).
Work on `CSc1ccc(-c2cc(CN3CC[Si](C)(C)CC3)c(C)n2-c2ccc(F)cc2)cc1` yielded an MIC [2] of 0.2 µM (≈ 0.0877 µg/mL).
Compound `COc1ccc(-c2cc(CN3CC[Si](C)(C)CC3)c(C)n2-c2ccc(F)cc2)cc1` has an MIC [2] of 1.5 µM (≈ 0.634 µg/mL).
`Cc1c(CN2CC[Si](C)(C)CC2)cc(-c2ccc(Cl)cc2)n1-c1ccc(Cl)cc1` gave a remaining at 0.5 h, 50 µM [1] of 86.3%, an MIC [2] of 0.1 µM (≈ 0.0443 µg/mL) and a solubility at 5000 µM [3] of 38.8 µM (≈ 17.2 µg/mL). The selectivity ratio [10] was > 250, the fraction unbound at 150 µM [11] was 0.0002 and the solubility at 5000 µM [4] was 4.73 µM (≈ 2.1 µg/mL). The IC50 at 24 h [12] was > 20 µM, the Activity (HEK293) was “Non-Toxic” and the selectivity ratio [13] was > 250. It also gave a solubility at 5000 µM [6] of 39.1 µM (≈ 17.3 µg/mL), a remaining at 0.5 h, 50 µM [7] of 56.7% and a solubility at 5000 µM [8] of 36.7 µM (≈ 16.3 µg/mL). For the same compound, the remaining at 1 h, 50 µM [14] was 99.4%.
In the case of `COc1ccc(-c2c(CN3CC[Si](C)(C)CC3)cc(C)n2-c2ccc(F)cc2)cc1`, the MIC [2] is reported as 7.4 µM (≈ 3.13 µg/mL).
`CCc1ccc(-c2cc(CN3CC[Si](C)(C)CC3)c(C)n2-c2ccc(OC)cc2)cc1` showed an MIC [2] of 0.2 µM (≈ 0.0865 µg/mL).
Compound `NNC(=O)c1ccncc1` [ISONIAZID] has an MIC [2] of 2.2 µM (≈ 0.302 µg/mL).
Work on `Cc1c(C(=O)NN2CCCCC2)nn(-c2ccc(Cl)cc2Cl)c1-c1ccc(Cl)cc1` [RIMONABANT] yielded an MIC [9] of 54 µM (≈ 25 µg/mL).
